One experiment concerns the target T1, N-formyl peptide receptor 2 (Homo sapiens, UniProt P25090).
T1 sequence (P25090 whole entry): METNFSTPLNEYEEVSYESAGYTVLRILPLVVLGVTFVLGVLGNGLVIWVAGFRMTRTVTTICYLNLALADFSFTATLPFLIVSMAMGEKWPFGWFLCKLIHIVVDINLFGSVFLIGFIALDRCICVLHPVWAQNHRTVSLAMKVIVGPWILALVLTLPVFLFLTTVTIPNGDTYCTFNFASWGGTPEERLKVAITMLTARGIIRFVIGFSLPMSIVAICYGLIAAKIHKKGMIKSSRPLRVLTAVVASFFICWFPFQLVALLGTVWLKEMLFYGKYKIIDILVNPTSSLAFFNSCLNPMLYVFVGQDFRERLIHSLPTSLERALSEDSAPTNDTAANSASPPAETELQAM
Nature of the experiment: Allosteric antagonist activity against FPR2 (unknown origin).
A word on the IC50: it is the concentration at which inhibition is half-maximal. Consider `CCCCCCCCCCCCCCCC(=O)N[C@@H](CCCCN)C(=O)N(CCC(=O)N[C@@H](CCCCN)C(=O)N(CCC(=O)N[C@@H](CCCCN)C(=O)N(CCC(=O)N[C@@H](CCCCN)C(=O)N(CCC(=O)N[C@@H](CCCCN)C(=O)N(CCC(=O)N[C@@H](CCCCN)C(=O)N(CCC(N)=O)[C@@H](C)c1ccccc1)[C@@H](C)c1ccccc1)[C@@H](C)c1ccccc1)[C@@H](C)c1ccccc1)[C@@H](C)c1ccccc1)[C@@H](C)c1ccccc1`, for which the IC50 was 50 nM.

The next experiment concerns the target T1, N-formyl peptide receptor 2. Nature of the experiment: Agonist activity at human FPR2 expressed in rat RBL-2H3 cells by intracellular Ca2+ mobilization assay. It is filed as functional, cell-based. For orientation: A change in cytosolic calcium serves as a functional read-out for many receptors and channels.
The EC50 is the concentration at which the effect is half-maximal. Lower therefore signals higher potency in that assay. On to `CCCCOc1ccc(C(=O)NN2Cc3ccccc3NC2c2ccc(C)cc2)cc1` (stereo not drawn), for which a half-maximal effect (EC50) was put at 1480 nM. Still for that read-out and setting: the result for `CCCCOc1ccc(C(=O)NN2Cc3ccccc3NC2c2ccc(OC)cc2)cc1` (stereo not drawn) reads 470 nM.

The next experiment has the same target. Nature of the experiment: Antagonist activity against human FPR2 expressed in rat RBL-2H3 cells pre-treated for 15 mins before addition of WKYMVm or C1 by intracellular Ca2+ mobilization assay. It is filed as functional, cell-based.
As for `CCCCOc1ccc(C(=O)NN2Cc3ccccc3NC2c2ccc(O)cc2)cc1` (stereo not drawn), the IC50 was 6650 nM. As to `CCCCOc1ccc(C(=O)NN2Cc3ccccc3NC2c2ccc(C)cc2)cc1` (stereo not drawn), the IC50 stood at 170 nM. On the same count and under the same terms, to `CCCCOc1ccc(C(=O)NN2Cc3ccccc3NC2c2ccc(OC)cc2)cc1` (stereo not drawn) belongs 90 nM.

The target is the same in a further experiment. As to the kind of experiment: Agonist activity against human FPR2 expressed in human HL60 cells by Fluo-4AM dye based intracellular Ca2+ mobilization assay. It is filed as functional, cell-based, HL-60.
In the case of `COc1ccc(CCNC(=O)Nc2ccccc2)cc1`, the EC50 came out at 3000 nM. Compound `COc1ccc(CCNC(=O)Nc2ccc(Cl)cc2)cc1` registered an EC50 of 400 nM. For `COc1ccc(CCNC(=O)Nc2ccc(Br)cc2)cc1`, it took 100 nM to reach a half-maximal effect (EC50).

`COC(=O)Nc1cccc(NC(=O)CSc2nc3cc(OC)ccc3[nH]2)c1` displayed an EC50 of 7300 nM. Still for that read-out and setting: the result for `CCOC(=O)C1CCN(C(=O)[C@H](Cc2c[nH]c3ccccc23)NC(=O)Nc2ccc(Br)cc2)CC1` reads 130 nM. For `CCOc1ccc2[nH]c(SCC(=O)Nc3ccccc3SC)nc2c1`, the EC50 turned out to be 8000 nM. Same read-out and setting: the result for `COc1ccc2[nH]c(SCC(=O)Nc3ccc(OC)c(OC)c3)nc2c1` reads 4700 nM; that for `O=C(Nc1ccc(Br)cc1)N[C@@H](Cc1ccccc1)C(=O)NN1CCCCNC1=O`, 4 nM; that for `O=C(Nc1ccc(Br)cc1)N[C@@H](Cc1ccccc1)C(=O)N1CCc2ccccc21`, 250 nM.

The compound `CCOC(=O)C1CCCN(C(=O)[C@H](Cc2ccccc2)NC(=O)Nc2ccc(Br)cc2)C1` (stereo partly drawn) gave an EC50 of 7 nM. Compared with the last compound, the EC50 is about 36-fold lower. Still for that read-out and setting: the result for `COc1ccc2[nH]c(SCC(=O)Nc3ccccc3Br)nc2c1` reads 4030 nM; that for `O=C(Nc1ccc(Cl)cc1)N[C@@H](Cc1ccccc1)C(=O)N1CCCCC1`, 50 nM; that for `O=C(Nc1ccc(Br)cc1)N[C@@H](Cc1ccccc1)C(=O)N1CCCCC1`, 40 nM. In turn, `O=C(Nc1ccc(Br)cc1)N[C@@H](Cc1ccccc1)C(=O)N1CCCC1` had an EC50 of 140 nM. Against the preceding compound, the EC50 is about 3.5-fold higher. `CCOC(=O)C1CCN(C(=O)[C@H](Cc2ccccc2)NC(=O)Nc2ccc(Br)cc2)CC1` had an EC50 of 160 nM.

In the case of `CSc1ccc(NC(=O)N[C@@H](Cc2ccccc2)C(=O)N2CCCCC2)cc1`, the EC50 was determined as 300 nM. Consider `COc1ccc(CCNC(=O)Nc2ccc(F)cc2)cc1`, for which the response was half-maximal at 900 nM (EC50). On the same count and under the same terms, to `COc1ccc2[nH]c(SCC(=O)Nc3ccccc3Cl)nc2c1` belongs 10000 nM. Same read-out and setting: to `COc1ccc2[nH]c(SCC(=O)Nc3ccc(C(C)=O)cc3)nc2c1` belongs 6000 nM; to `CCc1ccc(NC(=O)CSc2nc3cc(OC)ccc3[nH]2)cc1`, 3200 nM.

A further experiment has the same target. As to the kind of experiment: Agonist activity at FPR2 (unknown origin) by Fluo4 florescence based intracellular Ca2+ mobilization assay. It is filed as functional, cell-based.
Take `CCC[C@H]1CNC(=O)C(=O)N1C[C@@H]1CCCN1C[C@@H](Cc1ccc2ccccc2c1)N1C[C@@H](Cc2ccc(O)cc2)N(CC2CCCCC2)C(=O)C1=O`: the EC50 was 140 nM.

Another experiment shares this target. As to the kind of experiment: Antagonist activity against FPR2 (unknown origin) pre-treated for 5 mins before addition of Wpep by Fluo4 florescence based intracellular Ca2+ mobilization assay. It is filed as functional, cell-based.
As to `CC(C)[C@H]1CNC(=O)C(=O)N1C[C@@H]1CCCN1C[C@@H](Cc1ccc2ccccc2c1)N1C[C@@H](Cc2ccc(O)cc2)N(CC2CCCCC2)C(=O)C1=O`, the IC50 stood at 80 nM.

For the origin of these results see ChEMBL document CHEMBL3588798, “Non-peptide ligand binding to the formyl peptide receptor FPR2--A comparison to peptide ligand binding modes” (Bioorg Med Chem, 2015).
